From paper PMC4429288 (The Journal of antibiotics, 2014)
Where a name gives a salt, the structure may show the parent alone.

Columns and labels:
[1] = tested on: methicillin-resistant Staphylococcus aureus (MRSA); experiment: Single-step resistance selection; format: cell-based; conditions: 4 × MIC; for Single-step frequency of resistance: resistant colonies per inoculum
[2] = tested on: S. aureus (MRSA, VISA and VRSA strains); experiment: MBC, plating from MIC wells; format: cell-based, Staphylococcus aureus
[3] = tested on: S. aureus (MRSA, VISA and VRSA strains); experiment: MIC, broth microdilution; format: cell-based, Staphylococcus aureus
[4] = tested on: S. epidermidis ATCC 35984; experiment: MIC, broth microdilution; format: cell-based; conditions: Staphylococcus epidermidis, ATCC35984
MRSA NRS123 (USA400) = experiment: Time-kill analysis
[5] = Staphylococcus aureus, ATCC43300|MRSA|VISA|VRSA
[6] = Staphylococcus aureus, MRSA|NRS107|VISA|VRSA
[7] = Staphylococcus aureus, MRSA|NRS119|VISA|VRSA
[8] = Staphylococcus aureus, MRSA|NRS123|USA400|VISA|VRSA
[9] = Staphylococcus aureus, MRSA|NRS194|VISA|VRSA
[10] = Staphylococcus aureus, MRSA|NRS384|USA300|VISA|VRSA
[11] = Staphylococcus aureus, MRSA|NRS385|USA500|VISA|VRSA

Molecule: CN[C@H](CC(C)C)C(=O)N[C@H]1C(=O)N[C@@H](CC(N)=O)C(=O)N[C@H]2C(=O)N[C@H]3C(=O)N[C@H](C(=O)N[C@H](C(=O)O)c4cc(O)cc(O)c4-c4cc3ccc4O)[C@H](O)c3ccc(c(Cl)c3)Oc3cc2cc(c3O[C@@H]2O[C@H](CO)[C@@H](O)[C@H](O)[C@H]2O[C@H]2C[C@](C)(N)[C@H](O)[C@H](C)O2)Oc2ccc(cc2Cl)[C@H]1O [Vancomycin, vancomycin hydrochloride]
- Single-step frequency of resistance ([1]; MRSA NRS119): >8.47×10^−10
- Single-step frequency of resistance ([1]; MRSA NRS123 (USA400)): >2.33×10^−10
- Single-step frequency of resistance ([1]; MRSA NRS384 (USA300)): 3.03×10^−10
- Single-step frequency of resistance ([1]; MRSA NRS385 (USA500)): >3.31×10^−10
- MBC [2, 5]: 0.74 µg/mL
- MBC ([2]; Staphylococcus aureus, MRSA|NRS1|VISA|VRSA): 2.97 µg/mL
- MBC ([2]; Staphylococcus aureus, MRSA|NRS19|VISA|VRSA): 2.97 µg/mL
- MBC ([2]; Staphylococcus aureus, MRSA|NRS37|VISA|VRSA): 2.97 µg/mL
- MBC [2, 6]: 1.49 µg/mL
- MBC [2, 7]: 1.49 µg/mL
- MBC [2, 8]: 0.37 µg/mL
- MBC [2, 9]: 0.74 µg/mL
- MBC [2, 10]: 0.74 µg/mL
- MBC [2, 11]: 0.74 µg/mL
- MIC [3, 5]: 0.74 µg/mL
- MIC [3, 6]: 0.74 µg/mL
- MIC [3, 7]: 0.74 µg/mL
- MIC [3, 8]: 0.37 µg/mL
- MIC [3, 9]: 0.74 µg/mL
- MIC [3, 10]: 0.74 µg/mL
- MIC [3, 11]: 0.74 µg/mL
- MIC [4]: 0.74 µg/mL
- Time to 3-log10 reduction in CFUml^−1 (MRSA NRS123 (USA400); 2 × MIC): ≤ 24 h
- Time to complete elimination of MRSA (MRSA NRS123 (USA400); 2 × MIC): not able to eliminate all bacteria completely
- Time to complete elimination of MRSA (MRSA NRS123 (USA400); 4 × MIC): 24 h
- Time to complete elimination of MRSA (MRSA NRS123 (USA400); 8 × MIC): 24 h

Molecule: teicoplanin
- Single-step frequency of resistance ([1]; MRSA NRS107): 1.91×10^−8
- Single-step frequency of resistance ([1]; MRSA NRS119): 2.73×10^−7
- Single-step frequency of resistance ([1]; MRSA NRS123 (USA400)): 2.21×10^−9
- Single-step frequency of resistance ([1]; MRSA NRS384 (USA300)): 3.03×10^−9
- Single-step frequency of resistance ([1]; MRSA NRS385 (USA500)): 1.79×10^−8
- Mutation frequency range ([1]; five MRSA strains): 2.73×10^−7 to 3.03×10^−9
- MBC ([2]; MRSA ATCC 43300): 3.76 µg/mL
- MBC ([2]; MRSA NRS107): 0.94 µg/mL
- MBC ([2]; MRSA NRS119): 0.94 µg/mL
- MBC ([2]; MRSA NRS123 (USA400)): 15.04 µg/mL
- MBC ([2]; MRSA NRS194): 15.04 µg/mL
- MBC ([2]; MRSA NRS384 (USA300)): 15.04 µg/mL
- MBC ([2]; MRSA NRS385 (USA500)): 3.76 µg/mL
- MBC ([2]; VISA NRS1): 7.52 µg/mL
- MBC ([2]; VISA NRS19): 0.94 µg/mL
- MBC ([2]; VISA NRS37): 7.52 µg/mL
- MBC ([2]; VRSA VRS1): 240.60 µg/mL
- MBC ([2]; VRSA VRS4): 60.15 µg/mL
- MBC ([2]; VRSA VRS5): 60.15 µg/mL
- MBC relative to MIC ([2]; three strains of MRSA (NRS194, USA300, and USA400)): 16 fold
- MBC relative to MIC ([2]; two additional MRSA strains): four
- MIC ([3]; MRSA ATCC 43300): 0.94 µg/mL
- MIC ([3]; MRSA NRS107): 0.94 µg/mL
- MIC ([3]; MRSA NRS119): 0.94 µg/mL
- MIC ([3]; MRSA NRS123 (USA400)): 0.94 µg/mL
- MIC ([3]; MRSA NRS194): 0.94 µg/mL
- MIC ([3]; MRSA NRS384 (USA300)): 0.94 µg/mL
- MIC ([3]; MRSA NRS385 (USA500)): 0.94 µg/mL
- MIC ([3]; VISA NRS1): 3.76 µg/mL
- MIC ([3]; VISA NRS19): 0.94 µg/mL
- MIC ([3]; VISA NRS37): 7.52 µg/mL
- MIC range ([3]; VISA strains): 0.94 to 7.52 µg/mL
- MIC ([3]; VRSA VRS1): 120.30 µg/mL
- MIC ([3]; VRSA VRS4): 60.15 µg/mL
- MIC ([3]; VRSA VRS5): 60.15 µg/mL
- MIC range ([3]; all three VRSA strains): 60.51 to 120.30 µg/mL
- Time to complete elimination of MRSA (MRSA NRS123 (USA400); 2 × MIC): 24 h
- Time to complete elimination of MRSA (MRSA NRS123 (USA400); 4 × MIC): 24 h
- Time to complete elimination of MRSA (MRSA NRS123 (USA400); 8 × MIC): 24 h
